From ChEMBL document CHEMBL5154869, “Discovery of 4-((E)-3,5-dimethoxy-2-((E)-2-nitrovinyl)styryl)aniline derivatives as potent and orally active NLRP3 inflammasome inhibitors for colitis” (Eur J Med Chem, 2022)

Legend:
[1] = molecular target: NACHT, LRR and PYD domains-containing protein 3 (Mus musculus) (UniProt Q8R4B8); test: Inhibition of NLRP3 inflammasome activation in LPS-stimulated mouse J774.A1 cells assessed as reduction in pyroptosis at 10 uM pretreated for 4 hrs with LPS and for 30 mins with compound prior to ATP addition and measured after 30 mins by PI/Hoechst33342 staining based analysis; assay type: cell-based; conditions: time 60.0 min
[2] = Cytotoxicity against human L02 cells assessed as reduction in cell viability incubated for 24 hrs by MTT assay; assay type: toxicity, cell-based
[3] = molecular target: NACHT, LRR and PYD domains-containing protein 3 (Mus musculus, UniProt Q8R4B8); test: Inhibition of NLRP3 inflammasome activation in LPS/nigericin-treated C57BL/6 mouse bone marrow-derived macrophages assessed as reduction in IL-1beta secretion preincubated for 3 hrs with LPS and for 30 mins with compound prior to nigericin addition and measured after 30 mins by ELISA; assay type: cell-based, BMDM
[4] = Metabolic stability in human liver microsomes assessed as half life by LC-MS/MS analysis; assay type: ADME, Microsome
[5] = Metabolic stability in human hepatocytes assessed as intrinsic clearance by LC-MS/MS analysis; assay type: ADME, cell-based, Hepatocyte; conditions: read-out: CLH
[6] = Metabolic stability in human liver microsomes assessed as intrinsic clearance by LC-MS/MS analysis; assay type: ADME, Microsome; conditions: read-out: CLH

Sequence of NACHT, LRR and PYD domains-containing protein 3 (Mus musculus) (Q8R4B8 whole entry, the tested form may be a part): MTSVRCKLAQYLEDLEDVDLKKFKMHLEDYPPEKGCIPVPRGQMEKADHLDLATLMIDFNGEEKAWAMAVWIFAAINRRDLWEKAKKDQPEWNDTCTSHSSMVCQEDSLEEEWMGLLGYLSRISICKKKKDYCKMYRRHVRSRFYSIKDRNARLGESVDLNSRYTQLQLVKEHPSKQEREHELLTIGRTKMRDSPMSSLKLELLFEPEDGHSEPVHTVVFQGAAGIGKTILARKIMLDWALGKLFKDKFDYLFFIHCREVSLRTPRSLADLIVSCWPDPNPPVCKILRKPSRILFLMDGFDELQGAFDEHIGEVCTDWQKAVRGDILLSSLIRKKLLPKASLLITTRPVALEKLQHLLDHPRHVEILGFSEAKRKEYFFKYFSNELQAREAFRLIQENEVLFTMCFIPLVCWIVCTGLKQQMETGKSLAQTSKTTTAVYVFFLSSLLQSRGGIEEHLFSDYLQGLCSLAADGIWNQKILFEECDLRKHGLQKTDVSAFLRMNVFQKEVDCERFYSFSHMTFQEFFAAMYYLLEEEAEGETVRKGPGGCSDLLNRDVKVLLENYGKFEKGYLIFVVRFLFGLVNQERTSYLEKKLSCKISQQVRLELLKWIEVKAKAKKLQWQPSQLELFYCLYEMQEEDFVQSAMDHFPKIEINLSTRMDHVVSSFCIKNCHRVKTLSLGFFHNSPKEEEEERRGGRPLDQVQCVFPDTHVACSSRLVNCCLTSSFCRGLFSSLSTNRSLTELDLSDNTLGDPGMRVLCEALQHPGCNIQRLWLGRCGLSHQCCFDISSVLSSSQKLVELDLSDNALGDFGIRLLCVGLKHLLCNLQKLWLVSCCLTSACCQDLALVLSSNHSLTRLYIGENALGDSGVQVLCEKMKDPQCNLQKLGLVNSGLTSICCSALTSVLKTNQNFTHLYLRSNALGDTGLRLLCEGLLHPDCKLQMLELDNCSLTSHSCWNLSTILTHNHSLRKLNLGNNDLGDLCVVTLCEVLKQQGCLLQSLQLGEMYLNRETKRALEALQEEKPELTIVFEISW
Sequence of NACHT, LRR and PYD domains-containing protein 3 (Q8R4B8 whole entry, the tested form may be a part): as above

Row | Compound | inhibition [1] [%] | IC50 at 24 h [2] [µM] | IC50 [3] [µM] | half-life [4] [min] | CLint scaled [5] [mL/min/kg] | microsomal CLint [6] [µL/min/mg]
1 | COc1cc(/C=C/c2ccc(NC(=O)c3ccccc3F)cc2)c(/C=C/[N+](=O)[O-])c(OC)c1 | 38.9 | > 100 | – | – | – | –
2 | COc1cc(/C=C/c2ccc(NC(=O)c3ccc(Cl)cc3)cc2)c(/C=C/[N+](=O)[O-])c(OC)c1 | 50 | > 100 | – | – | – | –
3 | COc1cc(/C=C/c2ccc(NC(=O)c3ccccc3C)cc2)c(/C=C/[N+](=O)[O-])c(OC)c1 | 39 | > 100 | – | – | – | –
4 | COc1cc(/C=C/c2ccc(NC(=O)c3ccc(C)o3)cc2)c(/C=C/[N+](=O)[O-])c(OC)c1 | 69.5 | > 100 | – | – | – | –
5 | COc1cc(/C=C/c2ccc(NC(=O)c3cccc(Br)c3)cc2)c(/C=C/[N+](=O)[O-])c(OC)c1 | 20.1 | > 100 | – | – | – | –
6 | COc1cccc(C(=O)Nc2ccc(/C=C/c3cc(OC)cc(OC)c3/C=C/[N+](=O)[O-])cc2)c1 | 24 | > 100 | – | – | – | –
7 | COc1cc(/C=C/c2ccc(NC(=O)c3ccc4ccccc4c3)cc2)c(/C=C/[N+](=O)[O-])c(OC)c1 | 57.2 | 131 | > 10 | – | – | –
8 | COc1cc(/C=C/c2ccc(NC(=O)c3ccccc3Br)cc2)c(/C=C/[N+](=O)[O-])c(OC)c1 | 36 | > 100 | > 10 | – | – | –
9 | COc1cc(/C=C/c2ccc(NC(=O)c3cccc(F)c3)cc2)c(/C=C/[N+](=O)[O-])c(OC)c1 | 39.9 | > 100 | – | – | – | –
10 | COc1cc(/C=C/c2ccc(NC(=O)c3cccc(C)c3)cc2)c(/C=C/[N+](=O)[O-])c(OC)c1 | 39.9 | > 100 | – | – | – | –
11 | COc1cc(/C=C/c2ccc(NC(=O)c3cccc(Cl)c3)cc2)c(/C=C/[N+](=O)[O-])c(OC)c1 | 24 | > 100 | – | – | – | –
12 | COc1cc(/C=C/c2ccc(NC(=O)c3ccccc3OC)cc2)c(/C=C/[N+](=O)[O-])c(OC)c1 | 31 | > 100 | – | – | – | –
13 | COc1ccc(C(=O)Nc2ccc(/C=C/c3cc(OC)cc(OC)c3/C=C/[N+](=O)[O-])cc2)cc1 | 41 | > 100 | > 10 | – | – | –
14 | CCOc1ccc(C(=O)Nc2ccc(/C=C/c3cc(OC)cc(OC)c3/C=C/[N+](=O)[O-])cc2)cc1 | 39.9 | > 100 | – | – | – | –
15 | COc1cc(/C=C/c2ccc(NC(=O)c3ccc(I)cc3)cc2)c(/C=C/[N+](=O)[O-])c(OC)c1 | 30.7 | > 100 | – | – | – | –
16 | CCc1ccc(C(=O)Nc2ccc(/C=C/c3cc(OC)cc(OC)c3/C=C/[N+](=O)[O-])cc2)cc1 | 39 | > 100 | – | – | – | –
17 | COc1cc(/C=C/c2ccc(NC(=O)c3ccc(F)cc3)cc2)c(/C=C/[N+](=O)[O-])c(OC)c1 | 44 | > 100 | 9.34 | – | – | –

Row | Compound | inhibition [1] [%] | IC50 at 24 h [2] [µM] | IC50 [3] [µM] | half-life [4] [min] | CLint scaled [5] [mL/min/kg] | microsomal CLint [6] [µL/min/mg]
18 | COc1cc(/C=C/c2ccc(NC(=O)C3CCCO3)cc2)c(/C=C/[N+](=O)[O-])c(OC)c1 (centres undefined) | 65.2 | > 100 | – | – | – | –
19 | COc1cc(/C=C/c2ccc(NC(=O)c3ccc(Br)cc3)cc2)c(/C=C/[N+](=O)[O-])c(OC)c1 | 46.2 | > 100 | – | – | – | –
20 | COc1cc(/C=C/c2ccc(NC(=O)C(C)(C)C)cc2)c(/C=C/[N+](=O)[O-])c(OC)c1 | 52.7 | > 100 | – | – | – | –
21 | COc1cc(/C=C/c2ccc(NC(=O)c3ccccc3Cl)cc2)c(/C=C/[N+](=O)[O-])c(OC)c1 | 28.9 | > 100 | – | – | – | –
22 | O=[N+]([O-])/C=C/c1ccc2c(c1)OCO2 | 75.1 | 39.2 | – | – | – | –
23 | COc1cc(/C=C/c2ccc(NC(=O)c3cccc4ccccc34)cc2)c(/C=C/[N+](=O)[O-])c(OC)c1 | 4.62 | > 100 | – | – | – | –
24 | COc1cc(/C=C/c2ccc(NC(=O)C3CC3)cc2)c(/C=C/[N+](=O)[O-])c(OC)c1 | – | – | – | 59.7 | 11.7 | 23.2
25 | COc1cc(/C=C/c2ccc(NC(=O)c3ccc(C)cc3)cc2)c(/C=C/[N+](=O)[O-])c(OC)c1 | 28.6 | > 100 | – | – | – | –
26 | COc1cc(/C=C/c2ccc(NC(=O)c3cccs3)cc2)c(/C=C/[N+](=O)[O-])c(OC)c1 | 66 | > 100 | 2.15 | – | – | –
27 | COc1cc(/C=C/c2ccc(NC(=O)c3ccccn3)cc2)c(/C=C/[N+](=O)[O-])c(OC)c1 | 60 | > 100 | – | – | – | –
28 | C=C1C(=O)[C@]23[C@H](O)[C@H]1CC[C@H]2[C@@]12CO[C@]3(O)[C@@H](O)[C@@H]1C(C)(C)CC[C@@H]2O [ORIDONIN] | 73.8 | 42.2 | – | – | – | –
29 | COc1cc(/C=C/c2ccc(NC(=O)c3cc4ccccc4o3)cc2)c(/C=C/[N+](=O)[O-])c(OC)c1 | 6.47 | > 100 | – | – | – | –
30 | COc1cc(/C=C/c2ccc(NC(=O)c3ccccc3)cc2)c(/C=C/[N+](=O)[O-])c(OC)c1 | 72.2 | > 100 | 1.56 | – | – | –
31 | COc1cc(/C=C/c2ccc(NC(=O)/C=C/c3ccccc3)cc2)c(/C=C/[N+](=O)[O-])c(OC)c1 | 30.7 | > 100 | > 10 | – | – | –
32 | COc1cc(/C=C/c2ccc(NC(=O)c3ccoc3)cc2)c(/C=C/[N+](=O)[O-])c(OC)c1 | 64.2 | > 100 | – | – | – | –
33 | COc1cc(/C=C/c2ccc(NC(=O)COc3ccccc3)cc2)c(/C=C/[N+](=O)[O-])c(OC)c1 | 7.5 | > 100 | – | – | – | –
